Source: ChEMBL document CHEMBL3430912, “GSK Tres Cantos Anti-Kinetoplastid Screening (TCAKS) Data”

Experiments:
[1] = target: Sterol 14-alpha demethylase (Trypanosoma cruzi (strain CL Brener), UniProt Q7Z1V1); assay: GSK_TCAKS: pIC50 CYP51 from Trypanosoma cruzi.; assay type: functional
Leishmania donovani [2] = assay: (§1) GSK_TCAKS: pIC50 Leishmania donovani Imaging: Infected Macrophages. Assay plates (384-well) were prepared by adding 250nL of compound to each well. For single shot assay, the final compound concentration was 5 uM. […] Automated image analysis was performed with a script developed on Acapella High Content Imaging and Analysis Software (PerkinElmer). Output: Percent of infected macrophage cells were reported for each well.; assay type: functional, organism-based, Homo sapiens; details: THP-1
[3] = tested on: Trypanosoma brucei brucei; assay: GSK_TCAKS: pIC50 Trypanosoma brucei viability assay using luminiscence. Assay plates (1536-well) were prepared. T. brucei cultures were harvested and counted in a CASY cell counter. A parasite suspension was prepared at a final concentration of 5 * 10^4 cells/mL in complete HMI9 medium and 6uL was dispensed to all wells containing compounds using a Multidrop Combi dispenser. 6uL of HMI9 media with 0.4% DMSO were dispensed to control columns. Plates were incubated for 24 h at 37C, 5% CO2 then tempered for 10 min at room temperature. ATP content was quantified by adding 4 uL of CellTiter-Glo Reagent (Promega) according to the manufacturer's instructions. Luminescence was measured using a ViewLux.; assay type: functional, organism-based; details: Lister 427, CASY
Trypanosoma cruzi [4] = assay: (§2) GSK_TCAKS: pIC50 Trypanosoma cruzi Imaging: Infected Cells. […] Cells were then washed once with PBS before infection. T. cruzi trypomastigotes, collected at days 5 to 8 after infection from LLC-MK2 parasite infected cultures, were allowed to swim out for 4h at 37C from a centrifuged pellet (2,500 rpm/10 min/room temperature). Trypomastigotes were then collected and counted in a CASY Cell Counter. Trypomastigotes, in supplemented DMEM, were added to H9c2 cultures in a multiplicity of infection of 1 and incubated for 18 h. Cells were washed once with PBS before incubation of the infected H9c2 monolayer with trypsin (Life-Technologies) to detach cells from the flask. Cells were counted in a CASY Cell Counter using a 150 um capillary and their density set at 5 * 10^4 cells per mL in supplemented assay DMEM. Infected H9c2 were dispensed into 384-well poly-lysine coated assay plates at 50uL per well using a Multidrop Combi dispenser. After seeding them, the plates were incubated at 37C, 5% CO2 for 72h. Cultures were then fixed and stained by addition of 50 uL of a solution containing 8% formaldehyde and 4 uM DRAQ5 DNA dye (BioStatus, UK) per well. […] Five images were collected per well for reliable statistical analysis. Automated image analysis was performed with a script developed on Acapella High Content Imaging and Analysis Software (PerkinElmer). Output: percentage of infected cells per well as a second infection marker.; assay type: functional, organism-based, Rattus norvegicus; details: H9c2, 4 h
Trypanosoma cruzi [5] = assay: GSK_TCAKS: pIC50 Trypanosoma cruzi Imaging: Amastigotes/Cell. […] Cells were then washed once with PBS before infection. T. cruzi trypomastigotes, collected at days 5 to 8 after infection from LLC-MK2 parasite infected cultures, were allowed to swim out for 4h at 37C from a centrifuged pellet (2,500 rpm/10 min/room temperature). Trypomastigotes were then collected and counted in a CASY Cell Counter. Trypomastigotes, in supplemented DMEM, were added to H9c2 cultures in a multiplicity of infection of 1 and incubated for 18 h. Cells were washed once with PBS before incubation of the infected H9c2 monolayer with trypsin (Life-Technologies) to detach cells from the flask. Cells were counted in a CASY Cell Counter using a 150 um capillary and their density set at 5 * 10^4 cells per mL in supplemented assay DMEM. Infected H9c2 were dispensed into 384-well poly-lysine coated assay plates at 50uL per well using a Multidrop Combi dispenser. After seeding them, the plates were incubated at 37C, 5% CO2 for 72h. Cultures were then fixed and stained by addition of 50 uL of a solution containing 8% formaldehyde and 4 uM DRAQ5 DNA dye (BioStatus, UK) per well. […] Five images were collected per well for reliable statistical analysis. Automated image analysis was performed with a script developed on Acapella High Content Imaging and Analysis Software (PerkinElmer). Output: number of amastigotes per cell as infection level measurement.; assay type: functional, organism-based, Rattus norvegicus; details: H9c2, 4 h
[6] = GSK_TCAKS: pIC50 HepG2 human cell line viability assay using luminiscence. […] Seeding density was checked to ensure that new mono-layers were not more than 50% confluent at the time of harvesting. Cell suspension was added to 500 mL of the same medium at a final density of 1.2 * 10^5 cells/mL. This cell suspension was dispensed (25 uL, 3000 cells per well) into 384-well clear-bottom plates using a Multidrop Combi dispenser. Prior to addition of the cell suspension, the screening compounds (250 nL) were pre-dispensed into the plates with an Echo liquid handler. Plates were incubated for 48 h at 37C, 5% CO2. After incubation, plates equilibrated at room temperature for 30 min before proceeding to develop the luminescent signal. The signal developer, CellTiter-Glo Reagent, was allowed to equilibrate at room temperature for 30 min and added to the plates (25uL per well) using a Multidrop Combi dispenser. Plates were left for 10 min at room temperature for stabilization and then read using a ViewLux.; assay type: toxicity, cell-based
Trypanosoma cruzi [7] = assay: GSK_TCAKS: pIC50 Trypanosoma cruzi viability assay using beta-GAL activity. This assay was run at single shot at 5uM compound concentration per well. The biological reagents consisted of NIH-3T3 host cells and trypomastigotes parasitic cells; both cell types were set to a 3.3 * 10^5 cells/mL dilution in assay DMEM by means of a CASY cell counter device using a 60um capillary. 6 uL of the mixture were dispensed per well (about 1 * 10^3 host-cells and 1 * 10^3 parasites) with a Multidrop Combi dispenser. […] In all wells, the percentage of DMSO never exceeded 0.5%. Plates incubated for four days at 37C, 5% CO2. The substrate used for the assay fluorescence intensity (FLINT) readout was resorufin-beta-D-galactopiranoside (Sigma-Aldrich) at 5uM per well. It was diluted in PBS supplemented with the soft detergent Igepal (Fluka).; assay type: functional, organism-based, Mus musculus; details: Tulahuen, NIH3T3
[8] = tested on: Trypanosoma brucei brucei; assay: GSK_TCAKS: pIC50 Trypanosoma brucei viability assay using fluorescence intensity. Assay plates (1536-well) were prepared by dispensing 25nL of compound solution per well using an Echo acoustic dispenser (Labcyte).; assay type: functional, organism-based; details: Lister 427, 2 h
Leishmania donovani [9] = assay: as §1, with “Amastigotes/Macrophages.” for “Infected Macrophages.”, “Average number” for “Percent”, “amastigotes per” for “infected”, “cell” for “cells”; assay type: functional, organism-based, Homo sapiens; details: THP-1
Leishmania donovani [10] = assay: GSK_TCAKS: pIC50 Leishmania donovani viability assay using fluorescence intensity. Assay plates (1536-well) were prepared by adding 30nL per well of compound. For single shot assay, the final compound concentration was 5uM. […] Briefly, eGFP LdBOB axenic amastigotes were harvested, fixed and counted in a CASY cell counter (Roche-Applied Science). A final concentration of 1.5 * 10^5 cells per well were prepared in amastigote media containing 500 U/mL penicillin/streptomycin (Invitrogen) and 6uL was dispensed to each experimental well using a Multidrop Combi dispenser (Thermo Scientific). 6uL of assay media was dispensed to control columns used as reference for 100% compound response. Following incubation for 72 h at 37C, 5% CO2, 2 uL of resazurin was added to each well at a final concentration of 0.5 mM in phosphate buffered saline (PBS) with IGEPAL (Sigma-Aldrich), 0.05% (v/v).; assay type: functional, organism-based
Leishmania donovani [11] = assay: as §1, with “THP-1 Host” for “Infected”, “THP-1 cell count” for “Percent of infected macrophage cells”; assay type: functional, organism-based, Homo sapiens
Trypanosoma cruzi [12] = assay: as §2, with “H2C9” for “Trypanosoma cruzi”, “H9c2 Host Cardiomyocytes.” for “Infected Cells.”, “Number” for “percentage”, “H9c2 Host Cardiomyocytes nuclei to determine drug-related cytotoxicity.” for “infected cells per well as a second infection marker.”; assay type: functional, organism-based, Rattus norvegicus; details: H9c2, 4 h

Chain of Sterol 14-alpha demethylase (Q7Z1V1 whole entry): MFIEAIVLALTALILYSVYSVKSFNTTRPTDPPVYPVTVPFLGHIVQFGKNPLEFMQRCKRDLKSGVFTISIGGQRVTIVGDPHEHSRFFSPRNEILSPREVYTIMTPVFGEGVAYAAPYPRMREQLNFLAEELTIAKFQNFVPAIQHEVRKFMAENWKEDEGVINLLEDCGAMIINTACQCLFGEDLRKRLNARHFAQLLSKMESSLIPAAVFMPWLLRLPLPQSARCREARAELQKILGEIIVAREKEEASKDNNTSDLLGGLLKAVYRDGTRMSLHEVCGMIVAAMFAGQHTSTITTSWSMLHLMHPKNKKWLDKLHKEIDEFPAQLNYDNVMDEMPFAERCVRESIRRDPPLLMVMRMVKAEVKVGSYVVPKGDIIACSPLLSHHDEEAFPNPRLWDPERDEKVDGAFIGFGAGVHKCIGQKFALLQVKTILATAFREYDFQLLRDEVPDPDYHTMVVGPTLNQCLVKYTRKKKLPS

Row | SMILES | IC50 [1] [µM] | IC50 (Leishmania donovani [11]) [µM] | IC50 (Leishmania donovani [2]) [µM] | IC50 [3] [µM] | IC50 (Trypanosoma cruzi [4]) [µM] | IC50 (Trypanosoma cruzi [5]) [µM] | IC50 at 48 h [6] [µM] | IC50 (Trypanosoma cruzi [7]) [µM] | IC50 [8] [µM] | IC50 (Leishmania donovani [9]) [µM] | IC50 (Leishmania donovani [10]) [µM] | IC50 (Trypanosoma cruzi [12]) [µM]
1 | CNS(=O)(=O)c1ccccc1Nc1nc(Nc2ccnn2C)ncc1Cl | 31.6 |  | 0.631 | 0.1 | 1 | 0.631 | 50.1 | 0.398 | 0.0631 | 0.398 |  | 
2 | CS(=O)(=O)c1ccc(Nc2nccc(-c3cnn4ncccc34)n2)cc1 | 15.8 |  | 2 | 0.2 | 25.1 | 1 | 15.8 | 2 | 0.158 | 1 | 0.794 | 5.01
3 | N=C(N)Nc1nc(-c2ccc(NC(=N)NCCN3CCCC3)cc2)cs1 |  | > 50.1 | > 50.1 | 0.1 | > 50.1 | > 50.1 | > 100 | > 50.1 | 0.0398 | > 50.1 | > 50.1 | > 50.1
4 | [O-][s+]1nc(NCCCN(Cc2ccc(F)cc2)c2ccccn2)c(NCc2ccncc2)n1 (centres undefined) |  | 25.1 | > 50.1 | 0.501 | 50.1 | 39.8 | 79.4 | 31.6 | 0.316 | 25.1 | > 50.1 | > 50.1
5 | Oc1c(-c2nnc(Cc3ccc(F)cc3)[nH]2)ncc2cccnc12 | > 100 | 20 | 1 |  |  |  | 25.1 | 0.158 |  | 1 | 0.126 | 
6 | Oc1c(-c2nnc(Cc3ccc(Cl)cc3)[nH]2)ncc2cccnc12 | 31.6 | 20 | 1.26 |  |  |  | 39.8 |  |  | 1 | 0.251 | 

Further lines, with some results ahead:

Row | IC50 [1] [µM] | IC50 (Leishmania donovani [11]) [µM] | SMILES | IC50 (Leishmania donovani [2]) [µM] | IC50 [3] [µM] | IC50 (Trypanosoma cruzi [4]) [µM] | IC50 (Trypanosoma cruzi [5]) [µM] | IC50 at 48 h [6] [µM] | IC50 (Trypanosoma cruzi [7]) [µM] | IC50 [8] [µM] | IC50 (Leishmania donovani [9]) [µM] | IC50 (Leishmania donovani [10]) [µM] | IC50 (Trypanosoma cruzi [12]) [µM]
7 | 25.1 | 6.31 | Cc1nn(-c2nc3ccccc3[nH]2)c2c1C(c1ccc(O)cc1)CC(=O)N2 (centres undefined) | 1 |  |  |  | 25.1 |  |  | 0.501 | 0.794 | 
8 | 39.8 | 12.6 | C=CC[C@@H]1CC=C[C@@H](C)N1C(=O)CCc1nnc(-c2ccc3c(c2)OCO3)o1 | 7.94 |  |  |  | > 100 |  |  | 3.16 | 6.31 | 
9 | > 100 | > 50.1 | O=C1c2cnc(N3CCCC3)nc2CN1c1ccc2c(c1)OCO2 | 10 |  |  |  | > 100 | 2.51 |  | 6.31 | 6.31 | 
10 | > 100 | 15.8 | COc1ccccc1C(=O)Nc1nnc(-c2ccc3c(c2)OCO3)s1 | 1 |  |  |  | > 100 | 2.51 |  | 0.631 | 1 | 
11 | > 100 | 20 | COc1ccc(Cc2nnc(-c3ncc4cccnc4c3O)[nH]2)cc1OC | 3.16 |  |  |  | 50.1 | 1.26 |  | 2.51 | 0.316 | 
12 | > 100 | 20 | c1ccc(-c2nc(NC3CCCCC3)cc(C3CC3)n2)nc1 | 3.98 |  |  |  | 39.8 |  |  | 3.16 | 0.794 | 
